The compounds below were run against T1, human IL-17AA (Homo sapiens, UniProt Q16552) (assay: IL-8 release assay in human epithelial keratinocytes adult (HEKa)). Conditions: 3 ng/ml human IL-17AA + 10 ng/ml human TNFalpha, 68-72 h, IL-8 by HTRF, read-out: Rel EC50 L-8 release assay.
T1 construct: host or cells: HEK (human embryonic kidney) cells
T1 sequence (Q16552 24-155) 1: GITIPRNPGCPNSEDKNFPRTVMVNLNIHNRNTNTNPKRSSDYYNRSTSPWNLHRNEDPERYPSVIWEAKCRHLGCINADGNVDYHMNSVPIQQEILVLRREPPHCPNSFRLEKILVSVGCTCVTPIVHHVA
T1 sequence (Q16552 24-155) 2: T1 sequence (Q16552 24-155) 1
Format: cell-based
Description: Example: IL-8 release assay in human epithelial keratinocytes adult (HEKa) Keratinocytes were seeded at 3500 cells/well in 384-well ViewPlates (Perkin Elmer) in Epilife medium (Thermo Fisher) containing human keratinocyte growth supplement (HKGS) without hydrocortisone and incubated in a humid incubator at 37° C., 5% CO2, overnight. The following day growth medium was removed and 25 μl fresh Epilife 10 medium added. 75 nl test compound in 100% DMSO was added into each well reserved
for test compounds, by the use of acoustic pipetting. The remaining wells received an equal volume of DMSO only, as vehicle control, or terfenadine in DMSO, as a positive control for any cytotoxic compounds. Subsequently, another 25 μl Epilife medium was added to each well. Finally, wells containing test compounds and wells prepared to yield 15 maximum stimulation received 25 μl of 9 ng/ml recombinant, human embryonic kidney cell (HEK)-derived human IL-17AA+30 ng/ml human TNF-alpha, in Epilife medium. Wells prepared to define 100% inhibition of IL-17 effects received 25 μl of 30 ng/ml human TNF-alpha alone, in Epilife medium. Final concentrations were 3 ng/ml HEKhuman IL-17AA+10 ng/ml human TNFalpha (maximum stimulation) and 10 ng/ml 20 human TNFalpha alone (100% inhibition, Emax), respectively. Cells were incubated for 68-72 h in the incubator. IL-8 released from the cells was measured by the use of a commercial homogenous time-resolved fluorescence (HTRF) assay (CisBio). 2 μl cell culture supernatant was transferred to a 384-well Proxiplate. 5 μl HTRF reagent was added and the plates incubated sealed in the dark for 3-22 h at room temperature. Time resolved fluorescence was read at 665 vs 620 nm, with excitation at 320 nm, and IL-8 levels calculated as percent of controls. Reduction of the amount of secreted IL-8 indicates decreased IL-17 signaling. Concentration response curves were fitted by the use of a four-parameter logistic equation. Relative IC50 and Emax were reported from 5 curves showing acceptable fit (r2>0.9). Cytotoxicity was measured in the cell-containing
Compounds of the present invention were tested in the IL-8 release assay in human epithelial keratinocytes.

Row | SMILES | EC50 [µM]
1 | Cc1n[nH]c(C)c1-c1ccc(NC(=O)[C@@H](NC(=O)C2(F)CC2)[C@@H]2CCc3ccc(-c4cc(C5CC5)cnn4)cc32)cc1 [Example 384, N-[(1S)-1-[(1R)-6-(5-cyclopropylpyridazin-3-yl)indan-1-yl]-2-[4-(3,5-dimethyl-1H-pyrazol-4-yl)anilino]-2-oxo-ethyl]-1-fluoro-cyclopropanecarboxamide] | 0.1 to 1
2 | Cc1n[nH]c(C)c1-c1ccc(NC(=O)[C@@H](NC(=O)c2ccnn2C)[C@@H]2CCCc3ccc(-c4ccc5c(c4)CCNC5)cc32)cc1 [Example 38, N-[(1S)-2-[4-(3,5-dimethyl-1H-pyrazol-4-yl)anilino]-2-oxo-1-[(1R)-7-(1,2,3,4-tetrahydroisoquinolin-6-yl)tetralin-1-yl]ethyl]-2-methyl-pyrazole-3-carboxamide] | < 0.1
3 | Cc1n[nH]c(C)c1-c1ccc(NC(=O)[C@@H](NC(=O)c2ccnn2C)[C@@H]2CCCc3ccc(-c4cnn(C(C)(C)C)c4)cc32)cc1 [Example 34, N-[(1S)-1-[(1R)-7-(1-tert-butylpyrazol-4-yl)tetralin-1-yl]-2-[4-(3,5-dimethyl-1H-pyrazol-4-yl)anilino]-2-oxo-ethyl]-2-methyl-pyrazole-3-carboxamide] | < 0.1
4 | CC(C)n1cc(-c2cccc(C(c3ccccc3)C(NC(=O)OC3CC3)C(=O)Nc3ccc(-c4cncn4C)cc3)c2)ccc1=O (single isomer, unassigned; diastereomer 2) [Example 239, cyclopropyl N-[1-[[3-(1-isopropyl-6-oxo-3-pyridyl)phenyl]-phenyl-methyl]-2-[4-(3-methylimidazol-4-yl)anilino]-2-oxo-ethyl]carbamate (Diastereomer 2)] | 0.1 to 1
5 | Cc1n[nH]c(C)c1-c1ccc(NC(=O)[C@@H](NC(=O)c2ccnn2C)[C@@H]2CCc3ccc(-c4cnn(C5CCC5)c4)cc32)cc1 [Example 5, N-[(1S)-1-[(1R)-6-(1-cyclobutylpyrazol-4-yl)indan-1-yl]-2-[4-(3,5-dimethyl-1H-pyrazol-4-yl)anilino]-2-oxo-ethyl]-2-methyl-pyrazole-3-carboxamide] | < 0.1

Now from value to compound:

Row | EC50 [µM] | SMILES
6 | < 0.1 | Cc1n[nH]c(C)c1-c1ccc(NC(=O)[C@H](Cc2cc(-c3ccnc(N4CCC5(COC5)C4)n3)ccc2Cl)NC(=O)C2(F)CC2)cc1 [Example 316, N-[(1S)-1-[[2-chloro-5-[2-(2-oxa-7-azaspiro[3.4]octan-7-yl)pyrimidin-4-yl]phenyl]methyl]-2-[4-(3,5-dimethyl-1H-pyrazol-4-yl)anilino]-2-oxo-ethyl]-1-fluoro-cyclopropanecarboxamide]
7 | 0.1 to 1 | CN(C)c1cc(-c2ccc(Cl)c(CC(NC(=O)c3ccnn3C)C(=O)Nc3ccc(-c4cncn4C)cc3)c2)ccn1 (stereo not drawn) [Example 162, N-[1-[[2-chloro-5-[2-(dimethylamino)-4-pyridyl]phenyl]methyl]-2-[4-(3-methylimidazol-4-yl)anilino]-2-oxo-ethyl]-2-methyl-pyrazole-3-carboxamide]
8 | 0.1 to 1 | CC(C)c1cc(-c2ccc(Cl)c(C[C@H](NC(=O)c3ccnn3C)C(=O)Nc3ccc(-c4cncn4C)cc3)c2)ncn1 [Example 205, N-[(1S)-1-[[2-chloro-5-(6-isopropylpyrimidin-4-yl)phenyl]methyl]-2-[4-(3-methylimidazol-4-yl)anilino]-2-oxo-ethyl]-2-methyl-pyrazole-3-carboxamide]
9 | 0.1 to 1 | C[C@@H]1CN(c2cc(-c3ccc(Cl)c(C[C@H](NC(=O)c4ccnn4C)C(=O)Nc4ccc(-c5cncn5C)cc4)c3)ccn2)CCN1 [Example 210, N-[(1S)-1-[[2-chloro-5-[2-[(3R)-3-methylpiperazin-1-yl]-4-pyridyl]phenyl]methyl]-2-[4-(3-methylimidazol-4-yl)anilino]-2-oxo-ethyl]-2-methyl-pyrazole-3-carboxamide]

Reference: patent publication US20220162191A1, “SMALL MOLECULE MODULATORS OF IL-17” (LEO PHARMA A/S, priority 2019, published 2022)
